Reference: the supplement of paper PMC10307832

Columns and labels:
Assay in all cases: relative viability (nuclei count vs DMSO), 5 days (fraction); higher = more cells survive
[1] = compound: O=C(CCCCCCNC(=O)c1cnc(N(c2ccccc2)c2ccccc2)nc1)NO [Ricolinostat] + CC1(C)CCC(c2ccc(Cl)cc2)=C(CN2CCN(c3ccc(C(=O)NS(=O)(=O)c4ccc(N[C@H](CCN5CCOCC5)CSc5ccccc5)c(S(=O)(=O)C(F)(F)F)c4)cc3)CC2)C1 [Navitoclax] (partner 0.5 µM)
Summary of the method: (§1)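 After 5 days of treatment, lung cancer cells in 1536-well plates were fixed and stained in a single step (final 0.05% Triton X-100, 1% formaldehyde, 1 ug/ml Hoechst) and their nuclei counted on 4× images. Treatment had been applied by pin tool the day after seeding as one drug alone or as a fixed anchor-drug dose with five library-drug doses (not always all listed) in √10 steps. Relative viability is the nuclei count of treated wells divided by that of vehicle wells, and values are medians of duplicate plates.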

[2] = compound: C1=CC=C(C(=C1)C2=CC=C(C=C2)C3=CSC4=C3C(=C(C(=O)N4)C#N)O)O + O=C(CCCCCCC(=O)Nc1ccccc1)NO [Vorinostat] (partner 1 µM)
Summary of the method: as §1

Ricolinostat + Olaparib = compound: O=C(CCCCCCNC(=O)c1cnc(N(c2ccccc2)c2ccccc2)nc1)NO [Ricolinostat] + O=C(c1cc(Cc2n[nH]c(=O)c3ccccc23)ccc1F)N1CCN(C(=O)C2CC2)CC1 [Olaparib] (partner 8 µM)
Summary of the method: as §1

[3] = compound: C1=CC=C(C(=C1)C2=CC=C(C=C2)C3=CSC4=C3C(=C(C(=O)N4)C#N)O)O + C[C@@H](Oc1cc(-c2cnn(C3CCNCC3)c2)cnc1N)c1c(Cl)ccc(F)c1Cl [Crizotinib] (partner 1 µM)
Summary of the method: as §1

Cell Line | relative viability ([1]; first compound 0.08 µM) | relative viability ([1]; first compound 0.253 µM) | relative viability ([1]; first compound 0.8 µM) | relative viability ([1]; first compound 2.53 µM) | relative viability ([2]; first compound 0.08 µM) | relative viability ([2]; first compound 0.253 µM) | relative viability ([2]; first compound 0.8 µM) | relative viability ([2]; first compound 2.53 µM) | relative viability ([2]; first compound 8 µM) | relative viability (Ricolinostat + Olaparib; first compound 0.08 µM) | relative viability (Ricolinostat + Olaparib; first compound 0.253 µM) | relative viability (Ricolinostat + Olaparib; first compound 0.8 µM) | relative viability (Ricolinostat + Olaparib; first compound 2.53 µM) | relative viability ([3]; first compound 0.08 µM) | relative viability ([3]; first compound 0.253 µM) | relative viability ([3]; first compound 0.8 µM) | relative viability ([3]; first compound 2.53 µM) | relative viability ([3]; first compound 8 µM)
NCI-H441 | 0.77 | 0.411 | 0.798 | 0.357 | 0.551 | 0.812 | 0.858 | 0.818 | 0.742 | 0.575 | 0.471 | 0.478 | 0.455 | 0.738 | 0.873 | 0.839 | 0.777 | 0.525
EKVX | – | 0.805 | 0.842 | 1.02 | 0.672 | 1.01 | 0.758 | 0.653 | 0.561 | 0.638 | 0.897 | 0.853 | 0.836 | 0.947 | 1.06 | 0.824 | 1.36 | 0.803
HCC-44 | 0.861 | 1.04 | 0.985 | 0.93 | 1.15 | 1.12 | 1.13 | 1.08 | 1.06 | 1.04 | 0.922 | 1.06 | 1 | 0.845 | 0.833 | 0.754 | 0.901 | 0.625
A-427 | 0.861 | 0.906 | 0.89 | 0.754 | 0.923 | 0.861 | 0.864 | 0.904 | 0.859 | 0.572 | 0.762 | 0.586 | 0.594 | 0.905 | 1.08 | 0.998 | 1.05 | 0.988
NCI-H23 | 0.82 | 0.791 | 0.924 | 0.932 | 0.541 | 0.559 | 0.572 | 0.525 | 0.242 | 0.351 | 0.278 | 0.27 | 0.275 | 0.466 | 0.686 | 0.381 | 0.511 | 0.386
NCI-H596 | 0.951 | 0.954 | 0.858 | 0.887 | 0.588 | 0.574 | 0.589 | 0.48 | 0.527 | 0.699 | 0.676 | 0.693 | 0.526 | 0.96 | 1.02 | 1.08 | 0.97 | 0.834
NCI-H2087 | 0.96 | 1.04 | 1.02 | 1.04 | 0.336 | 0.672 | 0.685 | 0.764 | 0.918 | 0.502 | 0.588 | 0.671 | 0.357 | 0.845 | 1.04 | 0.914 | 1.02 | 0.825
HCC-78 | – | 0.771 | 0.561 | 0.435 | 0.514 | 0.678 | 0.448 | 0.523 | 0.352 | – | 0.788 | 0.735 | 0.448 | 0.374 | 0.423 | 0.443 | 0.343 | 0.3
NCI-H520 | – | 1.11 | 1.01 | 1.02 | 0.655 | 0.571 | 0.69 | 0.726 | 0.604 | – | 0.305 | 0.343 | 0.271 | 0.517 | 1.03 | 0.78 | 0.981 | 0.524
NCI-H727 | 0.356 | 0.55 | 0.397 | 0.405 | 1.38 | 1.26 | 1.24 | 1.21 | 1.05 | 0.827 | 0.624 | 0.75 | 0.611 | 0.701 | 0.961 | 0.864 | 0.995 | 0.756
